Experimental data from ChEMBL document CHEMBL1201862, “PubChem BioAssay data set” (2004).
Activity calls are given as the source filed them.

Key:
Cytochrome P450 2D6 = Cytochrome P450 2D6 (Homo sapiens, UniProt P10635); assay: qHTS Assay for Inhibitors and Substrates of Cytochrome P450 2D6. [Related pubchem assays: 410 ]; type: ADME; details: read-out: Potency
Cytochrome P450 2C19 = Cytochrome P450 2C19 (Homo sapiens, UniProt P33261); assay: qHTS Assay for Inhibitors and Substrates of Cytochrome P450 2C19. [Related pubchem assays: 410 ]; type: ADME; details: read-out: Potency
Chain of Cytochrome P450 2C19 (P33261 whole entry): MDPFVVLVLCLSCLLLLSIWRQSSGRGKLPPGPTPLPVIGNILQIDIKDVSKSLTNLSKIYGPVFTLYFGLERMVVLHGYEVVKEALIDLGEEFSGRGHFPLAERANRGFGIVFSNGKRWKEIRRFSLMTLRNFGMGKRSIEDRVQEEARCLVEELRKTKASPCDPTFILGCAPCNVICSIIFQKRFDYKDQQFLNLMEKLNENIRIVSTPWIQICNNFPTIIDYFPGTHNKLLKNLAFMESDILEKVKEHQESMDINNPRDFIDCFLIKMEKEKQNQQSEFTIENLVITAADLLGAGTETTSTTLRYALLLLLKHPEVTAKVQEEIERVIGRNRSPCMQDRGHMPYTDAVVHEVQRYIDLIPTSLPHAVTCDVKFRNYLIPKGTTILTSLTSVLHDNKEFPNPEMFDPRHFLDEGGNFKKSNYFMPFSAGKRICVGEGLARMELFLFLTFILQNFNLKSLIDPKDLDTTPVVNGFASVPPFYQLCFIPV

[1] = target: Peroxisome proliferator-activated receptor gamma/Nuclear receptor corepressor 2 (Homo sapiens, UniProt P37231+Q9Y618); assay: Counterscreen for NR2E3 inverse agonists: TR-FRET-based biochemical high throughput dose response assay to identify inverse agonists of the interaction between peroxisome proliferator-activated receptor gamma (PPARg) and nuclear receptor co-repressor 2 (NCOR2).; type: functional
Chain of Peroxisome proliferator-activated receptor gamma/Nuclear receptor corepressor 2 (P37231 whole entry): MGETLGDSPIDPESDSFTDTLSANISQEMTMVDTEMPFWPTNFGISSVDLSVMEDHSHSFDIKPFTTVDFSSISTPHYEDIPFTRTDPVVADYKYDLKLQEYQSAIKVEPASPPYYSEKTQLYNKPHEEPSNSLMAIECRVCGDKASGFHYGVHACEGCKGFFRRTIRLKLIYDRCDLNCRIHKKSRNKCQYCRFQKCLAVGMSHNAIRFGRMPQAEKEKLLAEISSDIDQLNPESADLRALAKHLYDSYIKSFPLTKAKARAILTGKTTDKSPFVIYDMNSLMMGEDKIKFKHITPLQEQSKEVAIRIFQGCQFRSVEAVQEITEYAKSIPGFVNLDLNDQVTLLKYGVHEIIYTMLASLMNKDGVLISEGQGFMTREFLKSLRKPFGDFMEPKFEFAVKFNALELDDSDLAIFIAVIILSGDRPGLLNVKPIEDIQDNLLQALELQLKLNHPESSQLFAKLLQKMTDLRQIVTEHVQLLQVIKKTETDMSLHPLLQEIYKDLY
Chain of Peroxisome proliferator-activated receptor gamma/Nuclear receptor corepressor 2 (Q9Y618 whole entry): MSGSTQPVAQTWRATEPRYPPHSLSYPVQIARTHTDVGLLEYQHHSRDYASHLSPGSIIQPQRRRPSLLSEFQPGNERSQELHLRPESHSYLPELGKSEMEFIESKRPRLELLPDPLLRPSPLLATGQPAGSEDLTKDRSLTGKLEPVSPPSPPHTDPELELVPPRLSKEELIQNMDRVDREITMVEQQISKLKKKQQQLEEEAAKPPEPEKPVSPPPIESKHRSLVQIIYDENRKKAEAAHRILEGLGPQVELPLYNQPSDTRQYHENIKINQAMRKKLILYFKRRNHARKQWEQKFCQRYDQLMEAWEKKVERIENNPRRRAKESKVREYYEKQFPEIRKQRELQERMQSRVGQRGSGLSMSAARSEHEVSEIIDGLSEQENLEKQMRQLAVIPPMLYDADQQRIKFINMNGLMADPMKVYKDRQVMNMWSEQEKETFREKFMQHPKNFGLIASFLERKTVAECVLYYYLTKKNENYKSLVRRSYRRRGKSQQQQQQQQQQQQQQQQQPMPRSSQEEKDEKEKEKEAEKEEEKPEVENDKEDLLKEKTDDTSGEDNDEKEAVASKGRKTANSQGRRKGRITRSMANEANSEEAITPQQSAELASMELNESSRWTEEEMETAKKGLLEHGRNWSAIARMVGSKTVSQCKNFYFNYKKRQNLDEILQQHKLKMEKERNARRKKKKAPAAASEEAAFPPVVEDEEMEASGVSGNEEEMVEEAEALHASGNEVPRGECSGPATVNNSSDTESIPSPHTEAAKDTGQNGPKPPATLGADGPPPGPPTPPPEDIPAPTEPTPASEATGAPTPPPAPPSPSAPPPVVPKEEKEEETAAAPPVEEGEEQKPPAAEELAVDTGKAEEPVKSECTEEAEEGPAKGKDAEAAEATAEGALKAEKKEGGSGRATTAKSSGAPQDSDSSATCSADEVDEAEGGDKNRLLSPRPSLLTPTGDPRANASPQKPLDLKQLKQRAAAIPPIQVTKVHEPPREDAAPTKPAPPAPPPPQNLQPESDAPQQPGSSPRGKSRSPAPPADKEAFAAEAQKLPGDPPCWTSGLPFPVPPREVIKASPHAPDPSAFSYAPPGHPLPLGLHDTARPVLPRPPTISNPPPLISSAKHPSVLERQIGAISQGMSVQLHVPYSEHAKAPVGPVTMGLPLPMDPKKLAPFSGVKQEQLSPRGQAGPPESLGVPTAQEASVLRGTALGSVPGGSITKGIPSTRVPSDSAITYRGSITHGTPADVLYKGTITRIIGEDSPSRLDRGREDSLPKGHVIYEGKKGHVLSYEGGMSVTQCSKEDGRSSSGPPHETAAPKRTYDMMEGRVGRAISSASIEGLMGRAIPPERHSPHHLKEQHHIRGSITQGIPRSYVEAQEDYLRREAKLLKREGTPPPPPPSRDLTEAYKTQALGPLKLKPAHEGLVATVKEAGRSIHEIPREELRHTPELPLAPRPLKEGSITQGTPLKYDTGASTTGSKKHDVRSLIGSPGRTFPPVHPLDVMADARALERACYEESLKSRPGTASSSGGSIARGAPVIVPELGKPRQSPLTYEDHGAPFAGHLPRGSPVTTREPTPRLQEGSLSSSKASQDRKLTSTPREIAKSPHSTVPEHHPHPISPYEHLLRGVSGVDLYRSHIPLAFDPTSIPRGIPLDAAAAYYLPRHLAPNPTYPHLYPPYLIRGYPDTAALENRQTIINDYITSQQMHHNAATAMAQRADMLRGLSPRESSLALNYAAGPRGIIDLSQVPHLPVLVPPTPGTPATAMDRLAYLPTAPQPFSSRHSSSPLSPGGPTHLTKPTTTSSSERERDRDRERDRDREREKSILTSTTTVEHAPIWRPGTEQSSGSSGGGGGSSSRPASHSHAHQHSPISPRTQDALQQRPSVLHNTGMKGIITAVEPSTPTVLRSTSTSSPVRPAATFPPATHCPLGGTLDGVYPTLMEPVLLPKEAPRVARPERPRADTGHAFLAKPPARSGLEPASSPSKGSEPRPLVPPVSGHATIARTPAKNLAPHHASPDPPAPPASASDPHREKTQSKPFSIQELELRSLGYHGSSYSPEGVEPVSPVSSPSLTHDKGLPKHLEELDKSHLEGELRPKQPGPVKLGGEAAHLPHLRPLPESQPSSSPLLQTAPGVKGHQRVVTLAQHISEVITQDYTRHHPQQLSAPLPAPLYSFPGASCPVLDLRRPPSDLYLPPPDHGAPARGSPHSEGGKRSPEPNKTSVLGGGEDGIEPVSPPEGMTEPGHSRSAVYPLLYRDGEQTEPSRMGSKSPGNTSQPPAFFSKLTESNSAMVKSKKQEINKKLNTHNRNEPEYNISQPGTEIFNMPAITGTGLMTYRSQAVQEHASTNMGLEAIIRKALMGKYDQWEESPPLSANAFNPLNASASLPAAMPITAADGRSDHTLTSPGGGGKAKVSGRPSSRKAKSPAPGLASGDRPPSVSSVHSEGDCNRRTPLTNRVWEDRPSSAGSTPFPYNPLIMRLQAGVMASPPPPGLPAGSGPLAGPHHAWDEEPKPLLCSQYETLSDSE

[2] = target: Photoreceptor-specific nuclear receptor (Homo sapiens, UniProt Q9Y5X4); assay: NR2E3 inverse agonists, dose response, biochemical, TR-FRET (AID 463256); type: functional
Chain of Photoreceptor-specific nuclear receptor (Q9Y5X4 whole entry): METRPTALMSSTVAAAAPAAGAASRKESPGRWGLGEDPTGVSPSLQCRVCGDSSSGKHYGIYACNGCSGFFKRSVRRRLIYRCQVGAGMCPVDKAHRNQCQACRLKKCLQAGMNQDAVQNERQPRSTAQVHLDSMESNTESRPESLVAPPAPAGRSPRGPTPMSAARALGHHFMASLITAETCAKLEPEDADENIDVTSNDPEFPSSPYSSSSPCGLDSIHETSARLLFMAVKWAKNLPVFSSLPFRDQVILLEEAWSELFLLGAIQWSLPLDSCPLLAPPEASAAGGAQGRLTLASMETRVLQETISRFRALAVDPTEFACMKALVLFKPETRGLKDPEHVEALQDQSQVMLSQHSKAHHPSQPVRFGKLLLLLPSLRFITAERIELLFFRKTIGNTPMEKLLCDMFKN

[3] = growth suppression of PTEN-null colon cells, dose response, cell-based, HCT116 PTEN knockout (AID 1047); type: functional;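 also: HCT116 colon tumor cells with PTEN knocked out; cells exposed to compound for 60 hours before readout; potency for loss of cell viability measured by luminescence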
Protein RecA = target: T1, Protein RecA (Mycobacterium tuberculosis, UniProt P9WHJ3); assay: Fluorescence Cell-Free Homogeneous Dose Retest to Identify Inhibitors of RecA-Intein Splicing Activity. [Related pubchem assays (depositor defined):AID2097, AID2223, AID489010, AID492950]; type: functional
T1 sequence (P9WHJ3 whole entry): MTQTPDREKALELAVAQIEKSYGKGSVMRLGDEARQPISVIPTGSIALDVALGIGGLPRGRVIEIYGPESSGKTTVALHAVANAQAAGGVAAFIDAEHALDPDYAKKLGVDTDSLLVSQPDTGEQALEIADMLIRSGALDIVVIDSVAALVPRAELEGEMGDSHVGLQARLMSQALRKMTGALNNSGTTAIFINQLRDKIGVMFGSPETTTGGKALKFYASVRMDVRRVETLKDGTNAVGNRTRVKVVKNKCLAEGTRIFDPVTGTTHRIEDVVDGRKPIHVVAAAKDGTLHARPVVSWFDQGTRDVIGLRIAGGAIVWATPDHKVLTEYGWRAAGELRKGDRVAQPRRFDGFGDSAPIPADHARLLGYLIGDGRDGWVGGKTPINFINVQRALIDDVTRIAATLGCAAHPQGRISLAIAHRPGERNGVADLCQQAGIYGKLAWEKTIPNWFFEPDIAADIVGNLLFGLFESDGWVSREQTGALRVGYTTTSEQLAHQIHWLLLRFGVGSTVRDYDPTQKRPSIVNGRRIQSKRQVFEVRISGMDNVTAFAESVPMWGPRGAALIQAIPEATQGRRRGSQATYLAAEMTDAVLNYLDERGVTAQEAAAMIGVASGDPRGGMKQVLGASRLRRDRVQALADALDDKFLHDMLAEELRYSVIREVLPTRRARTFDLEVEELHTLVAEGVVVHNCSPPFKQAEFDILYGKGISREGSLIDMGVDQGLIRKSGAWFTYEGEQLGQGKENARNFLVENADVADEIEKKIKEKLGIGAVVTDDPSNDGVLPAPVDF

[4] = target: Sphingosine 1-phosphate receptor 1 (Homo sapiens, UniProt P21453); type: functional;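 also: Tango beta-arrestin reporter U2OS cells stimulated with S1P near its EC80; inhibitor potency meaning antagonism of receptor activation by the natural agonist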
Chain of Sphingosine 1-phosphate receptor 1 (P21453 whole entry): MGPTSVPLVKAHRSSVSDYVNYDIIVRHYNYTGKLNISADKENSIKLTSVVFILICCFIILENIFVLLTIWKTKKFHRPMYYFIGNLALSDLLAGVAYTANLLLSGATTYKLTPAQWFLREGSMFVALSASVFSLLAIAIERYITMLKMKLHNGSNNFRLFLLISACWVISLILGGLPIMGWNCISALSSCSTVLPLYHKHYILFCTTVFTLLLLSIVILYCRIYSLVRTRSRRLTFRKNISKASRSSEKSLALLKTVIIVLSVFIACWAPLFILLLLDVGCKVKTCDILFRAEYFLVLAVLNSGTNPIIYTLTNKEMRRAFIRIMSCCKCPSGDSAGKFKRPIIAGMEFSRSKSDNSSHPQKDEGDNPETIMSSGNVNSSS

[5] = target: T2, Sphingosine 1-phosphate receptor 4 (Homo sapiens, UniProt O95977); assay: Fluorescence dose response cell-based high throughput screening assay for antagonists of the Sphingosine 1-Phosphate Receptor 4 (S1P4). [Related pubchem assays: 1524 (Confirmation in triplicates.), 1510 (Primary screen.)]; type: functional
T2 sequence (O95977 whole entry): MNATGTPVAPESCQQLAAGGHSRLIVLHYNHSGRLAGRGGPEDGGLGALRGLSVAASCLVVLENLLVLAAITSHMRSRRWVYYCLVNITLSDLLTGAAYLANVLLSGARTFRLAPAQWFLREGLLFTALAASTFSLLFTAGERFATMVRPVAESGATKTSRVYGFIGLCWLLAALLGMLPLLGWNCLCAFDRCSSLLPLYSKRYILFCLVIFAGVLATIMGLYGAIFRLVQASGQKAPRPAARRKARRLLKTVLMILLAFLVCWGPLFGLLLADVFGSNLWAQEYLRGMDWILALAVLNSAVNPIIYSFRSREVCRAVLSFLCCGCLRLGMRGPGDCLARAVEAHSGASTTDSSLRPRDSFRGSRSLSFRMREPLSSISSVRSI

[6] = growth suppression of beta-catenin-knockout colon cells, dose response, cell-based, HCT116, human colon tumor (AID 1045); type: functional;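 also: HCT116 colon tumor cells with beta catenin knocked out; cells exposed to compound for 60 hours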
[7] = target: T2, Sphingosine 1-phosphate receptor 4; assay: Late stage fluorescence dose response cell-based screening assay for antagonists of the Sphingosine 1-Phosphate Receptor 4 (S1P4). [Related pubchem assays: 1524 (Confirmation screen (S1P4 antagonists).), 1510 (Primary screen (S1P4 antagonists).), 1853 (Summary AID (S1P4 antagonists).), 1692 (Dose response screen (S1P4 antagonists).)]; type: functional
[8] = target: T3, Replicative DNA helicase DnaB (Mycobacterium tuberculosis, UniProt P9WMR3); assay: DnaB intein splicing inhibitors, dose response, biochemical, cell-free fluorescence (AID 449749); type: functional
T3 sequence (P9WMR3 whole entry): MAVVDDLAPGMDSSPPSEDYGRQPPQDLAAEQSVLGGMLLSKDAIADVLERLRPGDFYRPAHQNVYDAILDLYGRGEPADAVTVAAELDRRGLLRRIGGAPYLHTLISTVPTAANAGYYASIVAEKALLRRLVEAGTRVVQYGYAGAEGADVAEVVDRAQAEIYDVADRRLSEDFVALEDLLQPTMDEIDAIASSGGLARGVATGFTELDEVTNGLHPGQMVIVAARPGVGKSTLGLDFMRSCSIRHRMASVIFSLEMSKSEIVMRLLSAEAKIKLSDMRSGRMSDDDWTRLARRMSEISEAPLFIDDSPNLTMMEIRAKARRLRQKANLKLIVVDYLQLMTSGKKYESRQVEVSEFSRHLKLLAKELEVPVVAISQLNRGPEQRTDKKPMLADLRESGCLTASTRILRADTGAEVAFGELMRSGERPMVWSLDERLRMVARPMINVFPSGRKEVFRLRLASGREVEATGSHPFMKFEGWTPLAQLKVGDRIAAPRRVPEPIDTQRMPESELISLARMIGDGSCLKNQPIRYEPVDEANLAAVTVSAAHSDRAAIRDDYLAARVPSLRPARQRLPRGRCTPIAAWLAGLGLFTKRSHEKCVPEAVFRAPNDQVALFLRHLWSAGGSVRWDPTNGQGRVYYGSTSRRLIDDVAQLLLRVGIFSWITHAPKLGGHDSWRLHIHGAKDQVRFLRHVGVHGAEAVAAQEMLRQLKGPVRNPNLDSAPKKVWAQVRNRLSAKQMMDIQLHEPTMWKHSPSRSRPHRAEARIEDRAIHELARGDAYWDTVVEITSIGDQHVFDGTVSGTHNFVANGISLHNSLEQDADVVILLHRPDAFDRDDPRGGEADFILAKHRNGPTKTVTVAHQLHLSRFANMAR

[9] = target: T4, Heat shock factor protein 1 (Mus musculus, UniProt P38532); assay: HSF1 potentiators in luciferase reporter cells, confirmation, cell-based, NIH3T3, luminescence, dose retest (AID 435004); type: functional;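 also: stress induced by proteasome inhibitor MG132 added 30 min after compound; luciferase reporter driven by HSF1 response element in NIH3T3 cells; actives raise luminescence as potentiators of the MG132 stress response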
T4 sequence (P38532 whole entry): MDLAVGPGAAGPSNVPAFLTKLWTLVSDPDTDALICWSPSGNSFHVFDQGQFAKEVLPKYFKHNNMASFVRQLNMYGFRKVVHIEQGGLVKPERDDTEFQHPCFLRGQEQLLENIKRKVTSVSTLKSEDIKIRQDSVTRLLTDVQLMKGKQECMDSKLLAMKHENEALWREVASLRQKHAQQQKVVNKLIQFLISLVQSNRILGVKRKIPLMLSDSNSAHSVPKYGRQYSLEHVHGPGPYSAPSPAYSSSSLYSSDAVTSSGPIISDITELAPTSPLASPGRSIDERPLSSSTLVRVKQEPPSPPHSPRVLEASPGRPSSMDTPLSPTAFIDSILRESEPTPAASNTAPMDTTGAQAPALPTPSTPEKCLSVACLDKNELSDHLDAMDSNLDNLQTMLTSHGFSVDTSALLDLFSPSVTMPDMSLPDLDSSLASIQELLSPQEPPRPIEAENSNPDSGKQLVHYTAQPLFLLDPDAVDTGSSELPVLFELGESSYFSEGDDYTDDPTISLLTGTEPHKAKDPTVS

[10] = NIH-3T3 fibroblast cytotoxicity, dose response, cytotoxicity control, cell-based, fluorescence, Alamar Blue, secondary assay (AID 2327); type: functional;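 also: NIH-3T3 mouse fibroblasts cultured with fluconazole at 8 µg/mL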
[11] = C. albicans growth with fluconazole, confirmation, fluorescence, retest (AID 2467); type: functional, cell-based

Chain of Cytochrome P450 2D6 (P10635 whole entry): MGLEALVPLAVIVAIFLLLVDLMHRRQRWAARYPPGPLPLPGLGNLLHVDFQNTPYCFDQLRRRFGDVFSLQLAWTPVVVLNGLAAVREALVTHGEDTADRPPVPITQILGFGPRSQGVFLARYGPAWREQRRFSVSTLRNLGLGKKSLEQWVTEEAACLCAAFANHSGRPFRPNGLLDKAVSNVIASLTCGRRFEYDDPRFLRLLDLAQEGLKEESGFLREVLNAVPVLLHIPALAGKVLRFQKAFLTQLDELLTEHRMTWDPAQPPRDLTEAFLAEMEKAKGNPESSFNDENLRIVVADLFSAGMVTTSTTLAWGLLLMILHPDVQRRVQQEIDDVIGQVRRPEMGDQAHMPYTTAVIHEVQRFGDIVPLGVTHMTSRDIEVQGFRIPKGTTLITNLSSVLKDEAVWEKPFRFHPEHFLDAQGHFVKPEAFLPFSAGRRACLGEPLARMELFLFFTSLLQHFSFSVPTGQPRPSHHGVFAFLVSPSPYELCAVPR

Q: What does the source list for `COC(=O)NC(/C(C(=O)OC)=C(\C)NCc1ccccc1)c1cccc(C)c1` (centres undefined)?
A: AC50 (Cytochrome P450 2D6): 7.94 µM (inconclusive); AC50 (Cytochrome P450 2C19): 6.31 µM (inconclusive)

Q: For `NC(=O)c1ccc(NC(=O)CNC(=O)c2sc3ccccc3c2Cl)cc1`, which IC50 [1] is on record?
A: 2.8 µM (active)

Q: What about the IC50 [2] of the same compound?
A: 4.85 µM (active)

Q: Which EC50 [3] does the source give for `O=S(=O)(c1ccc(Cl)c(Cl)c1)c1snnc1-c1ccccc1` here?
A: 117 nM (active)

Q: What about the EC50 (Protein RecA) of the same compound?
A: 504 nM (active)

Q: What about the IC50 [4] of the same compound?
A: 4.29 µM (active)

Q: And the IC50 [5]?
A: 524 nM (active)

Q: What about the EC50 [6] of the same compound?
A: 83 nM (active)

Q: What about the IC50 [7] of the same compound?
A: 10.8 µM (not active)

Q: What about the AC50 [8] of the same compound?
A: 2.89 µM (active)

Q: What about the EC50 [9] of the same compound?
A: 9.7 µM (active)

Q: What about the EC50 [10] of the same compound?
A: 18.3 µM (active)

Q: What about the EC50 [11] of the same compound?
A: > 38 µM (not active)
